Test results taken from patent publication US20240067693A1, “POLYPEPTIDES AND USES THEREOF” (MEDIMMUNE LIMITED, priority 2020, published 2024).
Numbered stars: 1 amine (or outer) side, 2 acyl side, 3 side chain; on linkers, the order of the positions; unused ones are H or OH. Bridge positions count the residues as written; N and C are the ends. Square brackets hold non-standard residues; d marks the D form. Peptide text beside a SMILES is read from it. * marks the point of attachment. C20 diacid = O=C(O)CCCCCCCCCCCCCCCCCCC(=O)*; C18 diacid = O=C(O)CCCCCCCCCCCCCCCCC(=O)*; γGlu = O=C(O)[C@H](CCC(=O)[*:2])N[*:1]; αMeF = C[C@](N)(Cc1ccccc1)C(=O)O; AEEA = NCCOCCOCC(=O)O

Assays:
[1] = Pharmacokinetic determination via IV and SC administration in Sprague Dawley rats; conditions: male, rat, plasma, 20 nmol/kg
Method: (§2) PK studies were performed to determine the half-life (T1/2) of test peptides. T1/2 describes the time taken for the maximum plasma concentration (Cmax) of a test substance to halve its steady-state concentration when in circulation.
(§3) Male SD rats were purchased from Si Bei Fu Laboratory Animal Technology Co. Ltd (China). The animals were 6-8 weeks old with body weights of 200-300 g on the dosing date. The animals were housed in a 12-hour light/12-hour dark cycle environment and were fasted overnight before dosing. The body weight of the animals were recorded before dosing, 24 h and 48 h post dosing . Animals had free access to food and drinks, and the food consumption was quantified every day.
(§4) Test articles were administered at 20 nmol/kg. Blood samples were collected from each animal via Jugular vein.
(§5) The blood samples were transferred into eppendorf low binding tube containing K2 EDTA. Above 0.150 mL blood were collected at each time point. Blood samples were centrifuged at 4,000 g for 5 minutes at 4° C. to obtain plasma. The plasma samples were stored frozen at −75±15° C. until analysis.
(§6) Concentrations of the test articles in the plasma samples were analyzed using a LC-MS/MS method. Data acquisition was performed by LabSolution version 5.89 software (Shimadzu, Kyoto, Japan). Data statistics were performed using Excel 97-2003 software. The pharmacokinetic parameters of test articles were calculated using a non-compartmental approach with Phoenix™ VVinNonlin® 6.1.
(§7) The following pharmacokinetic parameters were calculated, whenever possible from the plasma concentration versus time data: • IV administration: T1/2, C0, AUClast, AUCinf, MRTinf, Cl, Vss, Number of Points for Regression. • SC administration: Tmax, Cmax, AUClast, AUCinf, MRTinf, F, Number of Points for Regression.

[2] = molecular target: T1, rat calcitonin receptor (rat CTR) (Rattus norvegicus, UniProt P32214); assay: cAMP production in HEK cells with stable recombinant expression of rat calcitonin receptor (rat CTR); assay type: cell-based; conditions: assay buffer with 0.1% BSA
T1 construct: expressed in transfected cells
T1 sequence (P32214 25-516): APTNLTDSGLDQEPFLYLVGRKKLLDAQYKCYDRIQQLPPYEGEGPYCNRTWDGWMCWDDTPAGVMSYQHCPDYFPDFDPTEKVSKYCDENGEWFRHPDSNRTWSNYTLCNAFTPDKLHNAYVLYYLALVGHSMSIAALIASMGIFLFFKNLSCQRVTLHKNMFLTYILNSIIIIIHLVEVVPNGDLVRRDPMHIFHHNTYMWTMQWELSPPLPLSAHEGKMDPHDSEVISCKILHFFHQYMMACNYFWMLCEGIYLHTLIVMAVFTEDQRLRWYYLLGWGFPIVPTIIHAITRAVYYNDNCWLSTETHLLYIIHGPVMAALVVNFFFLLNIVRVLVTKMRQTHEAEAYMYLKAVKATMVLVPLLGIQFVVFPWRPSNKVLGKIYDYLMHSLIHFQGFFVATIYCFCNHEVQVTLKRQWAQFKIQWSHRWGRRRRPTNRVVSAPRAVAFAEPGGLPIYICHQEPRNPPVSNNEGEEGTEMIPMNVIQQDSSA
Method in brief: (§1)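 Receptor-expressing cells (human receptors in 1321N1, rat receptors in HEK) incubated 30 min at room temperature with peptide in HBSS/HEPES pH 7.4, 0.1% BSA, 0.5 mM IBMX. cAMP read by HTRF; EC50 from 4-parameter fit as % of maximal amylin or calcitonin response.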

[3] = molecular target: T2, human calcitonin receptor (hCTR) (Homo sapiens, UniProt P30988); assay: cAMP production in 1321N1 cells with stable recombinant expression of human calcitonin receptor (hCTR); assay type: cell-based; conditions: cAMP, 1321N1 cells, assay buffer with 0.1% BSA; read-out: EC50 (pM) hCTR
T2 construct: expressed in transfected cells
T2 sequence (P30988 25-474): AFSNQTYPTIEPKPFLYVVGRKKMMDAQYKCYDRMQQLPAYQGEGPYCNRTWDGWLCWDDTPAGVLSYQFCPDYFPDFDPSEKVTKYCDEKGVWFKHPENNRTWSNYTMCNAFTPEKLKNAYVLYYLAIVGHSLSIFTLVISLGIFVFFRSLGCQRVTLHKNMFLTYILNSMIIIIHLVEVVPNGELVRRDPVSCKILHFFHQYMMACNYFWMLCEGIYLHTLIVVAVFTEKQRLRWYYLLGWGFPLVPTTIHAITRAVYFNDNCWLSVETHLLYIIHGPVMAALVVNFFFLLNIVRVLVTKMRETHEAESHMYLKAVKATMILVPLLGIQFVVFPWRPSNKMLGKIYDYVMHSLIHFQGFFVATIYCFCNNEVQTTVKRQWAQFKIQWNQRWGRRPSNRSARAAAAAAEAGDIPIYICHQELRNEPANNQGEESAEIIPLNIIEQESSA
Method in brief: as §1

[4] = molecular target: T3, human amylin receptor (calcitonin receptor co-expressed with receptor activity modifying protein, RAMP3) (hAMYR3) (Homo sapiens, UniProt O60896+P30988); assay: cAMP production in 1321N1 cells with stable recombinant expression of human amylin receptor (hAMYR3); assay type: cell-based; conditions: for Ratio (selectivity hAMYR vs hCTR, ratio of EC50 values at the two receptors): EC50 hCTR / EC50 hAMYR3; for EC50: cAMP, 1321N1 cells, assay buffer with 0.1% BSA, read-out: EC50 (pM) hAMYR3
T3 construct: expressed in transfected cells
T3 sequence (P30988 25-474): T2 sequence (P30988 25-474)
T3 sequence (O60896 24-148 partner): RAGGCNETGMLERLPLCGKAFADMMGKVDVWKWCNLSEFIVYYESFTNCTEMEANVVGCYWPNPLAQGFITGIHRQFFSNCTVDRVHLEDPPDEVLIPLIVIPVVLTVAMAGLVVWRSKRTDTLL
Method in brief: as §1

in vivo = conditions: male, Sprague-Dawley, rat, 20 nmol/kg
Method: as §2, §3, §4, §5, §6, §7

half-life ([1]; iv) [h] | half-life ([1]; sc) [h] | EC50 [2] [pM] | EC50 [3] [pM] | Ratio (selectivity hAMYR vs hCTR, ratio of EC50 values at the two receptors) [4] | EC50 [4] [pM] | half-life (in vivo; iv) [h] | half-life (in vivo; sc) [h] | Compound
10.1 | 8.8 | 2780 | 2730 | 15 | 183 | – | – | CC[C@H](C)[C@H](NC(=O)[C@@H]1CCCN1C(=O)CNC(=O)[C@](C)(Cc1ccccc1)NC(=O)[C@H](CC(N)=O)NC(=O)[C@H](CC(N)=O)NC(=O)[C@H](CO)NC(=O)[C@H](CO)NC(=O)[C@H](Cc1c[nH]cn1)NC(=O)[C@H](CCCNC(=N)N)NC(=O)[C@H](CC(C)C)NC(=O)[C@H](Cc1ccccc1)NC(=O)[C@H](CCC(=O)O)NC(=O)[C@H](C)NC(=O)[C@H](CC(C)C)NC(=O)[C@H](CCCNC(=N)N)NC(=O)[C@H](CCC(N)=O)NC(=O)[C@@H](NC(=O)[C@H](C)NC(=O)[C@@H]1CSSC[C@H](NC(=O)CC[C@H](NC(=O)CCCCCCCCCCCCCCCCC(=O)O)C(=O)O)C(=O)N[C@@H](CC(N)=O)C(=O)N[C@@H]([C@@H](C)O)C(=O)N[C@@H](C)C(=O)N[C@@H]([C@@H](C)O)C(=O)N1)[C@@H](C)O)C(=O)N[C@@H](CC(C)C)C(=O)N1CCC[C@H]1C(=O)N1CCC[C@H]1C(=O)N[C@H](C(=O)N[C@@H](CC(N)=O)C(=O)N[C@H](C(=O)NCC(=O)N[C@@H](CO)C(=O)N[C@@H](CC(N)=O)C(=O)N[C@H](C(=O)N[C@@H](Cc1ccc(O)cc1)C(N)=O)[C@@H](C)O)C(C)C)[C@@H](C)O [Peptide 10, C18diacid-γE-[CNTATC]ATQRLAEFLRHSSNN(αMePhe)GPILPPTNVGSNTY-amide] ({C18 diacid-γGlu}-CNTATCATQRLAEFLRHSSNN[αMeF]GPILPPTNVGSNTY-NH2; disulfide 1-6)
– | – | 10400 | 18500 | 16 | 1170 | 11.2 | 18.2 | CC[C@H](C)[C@H](NC(=O)[C@@H]1CCCN1C(=O)CNC(=O)[C@H](Cc1ccccc1)NC(=O)[C@H](CC(N)=O)NC(=O)[C@H](CC(N)=O)NC(=O)[C@H](CO)NC(=O)[C@H](CO)NC(=O)[C@H](Cc1c[nH]cn1)NC(=O)[C@@H](NC(=O)[C@H](CC(C)C)NC(=O)[C@H](Cc1ccccc1)NC(=O)[C@H](CC(N)=O)NC(=O)[C@H](C)NC(=O)[C@H](CC(C)C)NC(=O)[C@H](CCCNC(=N)N)NC(=O)[C@H](CCC(N)=O)NC(=O)[C@@H](NC(=O)[C@H](C)NC(=O)[C@@H]1CSSC[C@H](NC(=O)[C@H](CCCCN)NC(=O)COCCOCCNC(=O)COCCOCCNC(=O)CC[C@H](NC(=O)CCCCCCCCCCCCCCCCCCC(=O)O)C(=O)O)C(=O)N[C@@H](CC(N)=O)C(=O)N[C@@H]([C@@H](C)O)C(=O)N[C@@H](C)C(=O)N[C@@H]([C@@H](C)O)C(=O)N1)[C@@H](C)O)C(C)C)C(=O)N[C@@H](CC(C)C)C(=O)N1CCC[C@H]1C(=O)N1CCC[C@H]1C(=O)N[C@H](C(=O)N[C@@H](CC(N)=O)C(=O)N[C@H](C(=O)NCC(=O)N[C@@H](CO)C(=O)N[C@@H](CC(N)=O)C(=O)N[C@H](C(=O)N[C@@H](Cc1ccc(O)cc1)C(N)=O)[C@@H](C)O)C(C)C)[C@@H](C)O [Peptide 113] ({C20 diacid-γGlu-AEEA-AEEA}-KCNTATCATQRLANFLVHSSNNFGPILPPTNVGSNTY-NH2; disulfide 2-7)
